Assay results as given in patent US20240148740A1, “COMBINATION OF AN AHR INHIBITOR WITH A PDX INHIBITOR OR DOXORUBICINE” (Ikena Oncology, Inc., priority 2020, published 2024).

Target: T1, AHR (Homo sapiens, UniProt P35869)
T1 sequence (P35869 11-848): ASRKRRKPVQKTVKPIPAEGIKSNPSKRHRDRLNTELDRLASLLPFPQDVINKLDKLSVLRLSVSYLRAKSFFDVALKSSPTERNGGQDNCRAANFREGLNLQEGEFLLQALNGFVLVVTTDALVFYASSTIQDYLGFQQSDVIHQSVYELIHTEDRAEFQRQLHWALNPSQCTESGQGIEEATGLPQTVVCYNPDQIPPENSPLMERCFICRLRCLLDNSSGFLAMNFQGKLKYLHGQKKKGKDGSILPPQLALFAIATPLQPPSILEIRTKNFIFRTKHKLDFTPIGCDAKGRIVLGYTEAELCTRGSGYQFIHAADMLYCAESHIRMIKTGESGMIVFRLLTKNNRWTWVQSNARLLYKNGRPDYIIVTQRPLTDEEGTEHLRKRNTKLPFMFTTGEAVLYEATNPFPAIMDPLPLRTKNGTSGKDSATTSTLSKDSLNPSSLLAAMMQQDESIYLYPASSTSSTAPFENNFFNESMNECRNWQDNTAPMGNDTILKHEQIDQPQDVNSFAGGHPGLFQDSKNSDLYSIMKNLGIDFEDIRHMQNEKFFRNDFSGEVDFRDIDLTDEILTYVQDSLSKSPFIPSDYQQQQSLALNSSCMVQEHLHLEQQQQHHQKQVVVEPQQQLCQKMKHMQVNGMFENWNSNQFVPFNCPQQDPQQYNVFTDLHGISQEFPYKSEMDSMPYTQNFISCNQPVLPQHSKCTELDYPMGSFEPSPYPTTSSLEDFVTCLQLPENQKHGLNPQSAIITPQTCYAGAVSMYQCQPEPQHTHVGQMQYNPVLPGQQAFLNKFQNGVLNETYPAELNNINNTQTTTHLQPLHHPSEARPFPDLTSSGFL
Assay: Phase 1 study, pharmacodynamic whole blood assay of AHR target genes
Assay type: in vivo
Conditions: all subjects in the 200 mg, 400 mg, and 800 mg cohorts
Excerpt: Because the starting dose and any higher dose of Compound A is expected to be near or at the pharmacologically active range, each subject is required to have blood drawn and tumor biopsies for secondary and exploratory pharmacodynamic endpoints. The blood and tumor tissue samples are used to confirm AHR target engagement. Individual subjects can be exempted from the tumor biopsy requirement upon discussion and prior agreement by the Sponsor. The initial sampling strategy is based on the predicted human pharmacodynamics of Compound A. If in the course of evaluating the pharmacodynamics, it is determined that an alternative sampling scheme would be more informative, then that alternative sampling scheme can be implemented if the total amount of blood, blood draws, and tumor biopsies obtained for pharmacodynamics is not increased. Moreover, the total number of samples can be decreased at any time if the initial sampling scheme is considered unnecessarily intensive.

inhibition of expression of AHR target gene CYP1B1: Robust inhibition
Structure (SMILES): CC(C)c1cnn2c(N[C@@H]3CCc4[nH]c5ccccc5c4C3)nc(-c3cncc(F)c3)nc12 [Compound A, (R)—N-(2-(5-fluoropyridin-3-yl)-8-isopropylpyrazolo[1,5-a][1,3,5]triazin-4-yl)-2,3,4,9-tetrahydro-1H-carbazol-3-amine]
